The target of one assay is CDK9/Cyclin T1 complex (Homo sapiens, UniProt P50750). The assay can be described thus: CDK9 inhibition assay (Caliper/LabChip EZ Reader kinase assay). It is filed as biochemical. The settings on record: Table 1; CDK9/Cyclin T1 8 nM, ATP 2 mM, 15 min at 27° C. The method in brief:
(§1)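 Activity read as fluorescent peptide conversion on a LabChip EZ Reader. For CDK2/Cyclin E1 (0.5 nM), substrate was 5-FAM-CDK7tide (2 μM) with 2 mM MgCl2; for CDK9/Cyclin T1 (8 nM), 5-FAM-CDK9tide (2 μM) with 10 mM MgCl2.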

For assay [1], the target named is T1, CDK12 (aa686-1082)/Cyclin K complex (Homo sapiens, UniProt Q9NYV4).
T1 construct: CDK12 (aa686-1082)/Cyclin K complex
Kind of assay: CDK12 inhibition assay (Caliper/LabChip EZ Reader kinase assay). It is filed as biochemical. The settings on record: Table 1; CDK12 (aa686-1082)/Cyclin K 50 nM, ATP 2 mM, 3 hr at 27° C.

Another assay deals with HCC70 cells. The assay can be described thus: Inhibition of proliferation of HCC70 cells (CyQUANT Direct Cell Proliferation Assay, 72 hour). Format: cell-based, human. The settings on record: read-out: Inhibition of Proliferation of HCC70 Cells (calculated IC50). Here is the method: HCC70 cells are a cell line derived from human triple negative breast cancer. […] Known CDK inhibitors dinaciclib or N-((1S,3R)-3-((5-chloro-4-(1H-indol-3-yl) pyrimidin-2-yl)amino)cyclohexyl)-5-((E)-4-(dimethylamino)but-2-enamido)picolinamide and triptolide were used as positive controls. […] The cells were cultured at 37° C. in a humidified chamber in the presence of 5% CO2. Proliferation assays were conducted over a 72 hour time period. CyQUANT® Direct Cell Proliferation Assay (Life Technologies, Chicago, IL USA) was used to assess the anti-proliferative effects of the compounds following manufacturer's directions and utilizing the reagents supplied with the CyQUANT® Direct Cell kit.

The target in the next assay is CDK2/Cyclin E1 complex (Homo sapiens, UniProt P24941). The assay can be described thus: CDK2 inhibition assay (Caliper/LabChip EZ Reader kinase assay). It is filed as biochemical. Conditions: Table 1; CDK2/Cyclin E1 0.5 nM, ATP 2 mM, 35 min at 27° C. The method in brief:
as §1

In assay [2] the target is CDK7/Cyclin H/MAT1 complex (Homo sapiens, UniProt P50613). The assay can be described thus: CDK7 inhibition assay (Caliper/LabChip EZ Reader kinase assay). Conditions: Table 1; CDK7/Cyclin H/MAT1 6 nM, ATP 2 mM, 35 min at 27° C. Format: biochemical. Summed up: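 A Perkin Elmer Caliper/LabChip EZ Reader (Waltham, MA) platform served as the basis for this CDK7 kinase inhibition assay. The work was carried out by Biortus Biosciences, located in Jiangyin, Jiangsu Province, P.R. of China. Each CDK studied had its own kinase assay, and compounds were evaluated for their ability to block CDK7 activity.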

Read-outs that look alike come from different tables or passages of the source. Where only a bound is given, the exact number is not on record here.

Chain of CDK7/Cyclin H/MAT1 complex (P50613 whole entry, species assumed): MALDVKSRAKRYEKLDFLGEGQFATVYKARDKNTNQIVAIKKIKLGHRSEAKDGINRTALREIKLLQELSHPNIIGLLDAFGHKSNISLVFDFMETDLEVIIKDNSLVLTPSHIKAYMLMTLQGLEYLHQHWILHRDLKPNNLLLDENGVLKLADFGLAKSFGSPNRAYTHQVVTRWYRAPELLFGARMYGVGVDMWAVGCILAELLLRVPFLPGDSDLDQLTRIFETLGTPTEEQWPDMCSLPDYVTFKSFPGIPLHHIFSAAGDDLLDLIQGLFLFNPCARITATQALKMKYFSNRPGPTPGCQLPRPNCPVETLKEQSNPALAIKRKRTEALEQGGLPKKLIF
Chain of CDK7/Cyclin H/MAT1 complex (P51946 whole entry partner, species assumed): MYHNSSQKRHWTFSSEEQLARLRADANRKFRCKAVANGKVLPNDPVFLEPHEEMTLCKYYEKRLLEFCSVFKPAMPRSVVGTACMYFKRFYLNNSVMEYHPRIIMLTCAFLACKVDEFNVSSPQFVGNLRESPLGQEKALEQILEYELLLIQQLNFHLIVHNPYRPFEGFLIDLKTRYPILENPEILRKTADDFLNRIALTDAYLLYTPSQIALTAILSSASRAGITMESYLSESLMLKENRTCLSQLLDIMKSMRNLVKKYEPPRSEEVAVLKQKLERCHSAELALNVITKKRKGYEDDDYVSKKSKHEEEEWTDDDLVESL
Chain of CDK7/Cyclin H/MAT1 complex (P51948 whole entry partner, species assumed): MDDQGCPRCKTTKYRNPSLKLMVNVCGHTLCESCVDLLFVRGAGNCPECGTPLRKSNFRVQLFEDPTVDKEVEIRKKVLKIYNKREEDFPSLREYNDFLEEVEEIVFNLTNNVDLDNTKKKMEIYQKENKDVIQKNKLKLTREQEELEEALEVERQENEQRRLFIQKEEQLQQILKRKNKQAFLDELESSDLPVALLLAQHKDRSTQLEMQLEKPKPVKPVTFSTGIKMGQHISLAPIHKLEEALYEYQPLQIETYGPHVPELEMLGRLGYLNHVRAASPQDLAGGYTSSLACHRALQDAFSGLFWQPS
Chain of CDK9/Cyclin T1 complex (P50750 whole entry, species assumed): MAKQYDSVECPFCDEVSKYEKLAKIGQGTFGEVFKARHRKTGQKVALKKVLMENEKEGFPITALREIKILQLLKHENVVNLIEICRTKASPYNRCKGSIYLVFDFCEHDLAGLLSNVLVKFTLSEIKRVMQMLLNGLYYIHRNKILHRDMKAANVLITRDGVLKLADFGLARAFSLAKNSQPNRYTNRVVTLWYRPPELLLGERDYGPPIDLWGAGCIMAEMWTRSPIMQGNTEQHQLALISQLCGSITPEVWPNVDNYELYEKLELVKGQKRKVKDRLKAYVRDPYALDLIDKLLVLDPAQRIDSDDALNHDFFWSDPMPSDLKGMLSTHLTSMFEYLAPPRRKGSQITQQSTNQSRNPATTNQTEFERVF
Chain of CDK9/Cyclin T1 complex (O60563 whole entry partner, species assumed): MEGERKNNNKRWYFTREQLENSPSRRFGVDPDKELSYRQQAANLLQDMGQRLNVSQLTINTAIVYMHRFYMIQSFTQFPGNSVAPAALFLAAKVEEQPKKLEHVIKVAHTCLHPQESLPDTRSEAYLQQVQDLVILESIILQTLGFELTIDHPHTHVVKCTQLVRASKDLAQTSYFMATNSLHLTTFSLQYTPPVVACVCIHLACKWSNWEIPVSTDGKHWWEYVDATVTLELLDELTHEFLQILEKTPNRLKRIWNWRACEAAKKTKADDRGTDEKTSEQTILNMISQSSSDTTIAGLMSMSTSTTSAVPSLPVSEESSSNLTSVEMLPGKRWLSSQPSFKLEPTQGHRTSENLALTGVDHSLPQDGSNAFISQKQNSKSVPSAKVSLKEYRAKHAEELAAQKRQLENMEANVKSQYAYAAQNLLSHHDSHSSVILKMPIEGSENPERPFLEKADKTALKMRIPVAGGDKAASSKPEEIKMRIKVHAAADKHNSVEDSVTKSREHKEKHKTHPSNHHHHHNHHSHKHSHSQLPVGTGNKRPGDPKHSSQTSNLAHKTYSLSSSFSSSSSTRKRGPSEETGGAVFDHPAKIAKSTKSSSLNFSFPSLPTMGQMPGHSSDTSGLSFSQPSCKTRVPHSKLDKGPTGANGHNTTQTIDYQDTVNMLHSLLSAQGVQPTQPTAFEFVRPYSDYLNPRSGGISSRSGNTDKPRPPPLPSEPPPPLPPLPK
T1 sequence (Q9NYV4 686-1082, species assumed): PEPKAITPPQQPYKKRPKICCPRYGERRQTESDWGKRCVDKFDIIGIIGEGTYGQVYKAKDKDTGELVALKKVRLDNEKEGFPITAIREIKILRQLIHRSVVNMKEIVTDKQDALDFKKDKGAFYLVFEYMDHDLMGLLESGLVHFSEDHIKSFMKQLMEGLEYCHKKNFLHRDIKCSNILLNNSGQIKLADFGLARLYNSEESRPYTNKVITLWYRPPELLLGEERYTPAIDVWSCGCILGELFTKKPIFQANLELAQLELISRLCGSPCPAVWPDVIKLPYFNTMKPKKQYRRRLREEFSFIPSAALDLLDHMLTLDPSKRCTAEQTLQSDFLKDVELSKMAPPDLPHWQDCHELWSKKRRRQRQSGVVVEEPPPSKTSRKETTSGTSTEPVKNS
T1 sequence (O75909 whole entry partner, species assumed, the tested form may be a part): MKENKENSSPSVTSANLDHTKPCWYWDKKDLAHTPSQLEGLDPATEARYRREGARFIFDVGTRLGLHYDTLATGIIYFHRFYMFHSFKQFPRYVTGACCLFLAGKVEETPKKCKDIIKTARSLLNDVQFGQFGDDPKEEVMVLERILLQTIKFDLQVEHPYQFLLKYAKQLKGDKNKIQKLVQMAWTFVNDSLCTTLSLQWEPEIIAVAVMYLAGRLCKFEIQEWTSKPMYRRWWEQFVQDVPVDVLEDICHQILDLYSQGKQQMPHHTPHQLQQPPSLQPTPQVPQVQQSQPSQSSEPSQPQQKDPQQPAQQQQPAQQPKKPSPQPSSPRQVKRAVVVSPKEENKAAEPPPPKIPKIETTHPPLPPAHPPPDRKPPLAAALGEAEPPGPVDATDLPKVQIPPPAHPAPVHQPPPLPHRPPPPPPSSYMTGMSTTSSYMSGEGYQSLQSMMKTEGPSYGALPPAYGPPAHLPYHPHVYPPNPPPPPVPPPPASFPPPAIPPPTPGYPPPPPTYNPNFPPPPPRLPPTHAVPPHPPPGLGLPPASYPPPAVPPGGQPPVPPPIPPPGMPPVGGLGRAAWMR

Take `N#Cc1ccc2c(-c3nc(N[C@@H]4CCC5(CCC5)NC4)ncc3C(F)(F)F)c[nH]c2c1` (single isomer, unassigned) [Compound 377]: the IC50 was 0.2 to 5 µM on CDK9/Cyclin T1 complex; 0.2 to 5 µM in assay [1]; 0.1 to 1 µM in the assay with HCC70 cells (Homo sapiens, HCC70, 72 h); over 5 µM against CDK2/Cyclin E1 complex; under 0.02 µM in assay [2].

As for `N#Cc1ccc2c(-c3nc(N[C@H]4CCC5(CCC5)NC4)ncc3C(F)(F)F)c[nH]c2c1` (single isomer, unassigned) [Compound 378], the IC50 on CDK9/Cyclin T1 complex is over 5 µM; in assay [1] it was over 5 µM; with HCC70 cells (Homo sapiens, HCC70, 72 h) it was 1 to 5 µM; against CDK2/Cyclin E1 complex, over 5 µM; in assay [2], 0.02 to 0.2 µM.

With `CCc1cnc(N[C@H]2CCCNC2)nc1-c1c[nH]c2c(S(C)(=O)=O)cccc12` [Compound 269, (S)-5-ethyl-4-(7-(methylsulfonyl)-1H-indol-3-yl)-N-(piperidin-3-yl)pyrimidin-2-amine], the IC50 was 0.2 to 5 µM at CDK9/Cyclin T1 complex; 0.2 to 5 µM in assay [1]; 0.1 to 1 µM in the assay on HCC70 cells (Homo sapiens, HCC70, 72 h); 0.2 to 5 µM against CDK2/Cyclin E1 complex; under 0.02 µM in assay [2].

In the case of `CO[C@H]1CCN(C(=O)c2ccc3c(-c4nc(N[C@H]5CCCNC5)ncc4C(F)(F)F)c[nH]c3c2)C1` [Compound 280], the IC50 was over 5 µM on CDK9/Cyclin T1 complex; 0.2 to 5 µM in assay [1]; 0.1 to 1 µM in the assay on HCC70 cells; over 5 µM on CDK2/Cyclin E1 complex; 0.02 to 0.2 µM in assay [2].

Take `CC1(O)CCN(C(=O)c2ccc3c(-c4nc(N[C@H]5CCCNC5)ncc4C(F)(F)F)c[nH]c3c2)CC1` [Compound 282, (4-hydroxy-4-methyl-1-piperidyl)-[3-[2-[[(3S)-3-piperidyl]amino]-5-(trifluoromethyl)pyrimidin-4-yl]-1H-indol-6-yl] methanone]: the IC50 against CDK9/Cyclin T1 complex was over 5 µM; in assay [1], 0.2 to 5 µM; in the assay on HCC70 cells (Homo sapiens, HCC70, 72 h), 0.1 to 1 µM; on CDK2/Cyclin E1 complex, 0.2 to 5 µM; in assay [2], under 0.02 µM.

Consider `COCn1cc(-c2nc(N[C@H]3CCCNC3)ncc2C(F)(F)F)c2cccc(C#N)c21` [Compound 295], for which the IC50 at CDK9/Cyclin T1 complex is over 5 µM; in assay [1], over 5 µM; in the assay on HCC70 cells it was 1 to 5 µM; against CDK2/Cyclin E1 complex, over 5 µM; in assay [2], 0.02 to 0.2 µM.

On to `Cn1cc(-c2nc(N[C@H]3CCCNC3)ncc2C(F)(F)F)c2cccc(S(C)(=O)=O)c21` [Compound 296], for which the IC50 is over 5 µM against CDK9/Cyclin T1 complex; over 5 µM in assay [1]; 1 to 5 µM in the assay on HCC70 cells; over 5 µM at CDK2/Cyclin E1 complex; 0.02 to 0.2 µM in assay [2].

For `CNC(=O)c1ccc2c(-c3nc(N[C@H]4CCCNC4)ncc3C(F)(F)F)c[nH]c2n1` [Compound 297], the IC50 against CDK9/Cyclin T1 complex is 0.2 to 5 µM; in assay [1], 0.2 to 5 µM; in the assay with HCC70 cells (Homo sapiens, HCC70, 72 h) it was under 0.1 µM; at CDK2/Cyclin E1 complex, 0.2 to 5 µM; in assay [2], under 0.02 µM.

Take `CCN1CCC[C@H](Nc2ncc(C(F)(F)F)c(-c3c[nH]c4cc(S(C)(=O)=O)ccc34)n2)C1` [Compound 298]: the IC50 against CDK9/Cyclin T1 complex is over 5 µM; in assay [1] it was 0.2 to 5 µM; in the assay on HCC70 cells (Homo sapiens, HCC70, 72 h), 0.1 to 1 µM; on CDK2/Cyclin E1 complex, 0.2 to 5 µM; in assay [2] it was under 0.02 µM.

In the case of `N#Cc1ccc2c(-c3nc(N[C@H]4CCCNC4)ncc3OC(F)F)c[nH]c2c1` [Compound 301, 3-[5-(difluoromethoxy)-2-[[(3S)-3-piperidyl]amino]pyrimidin-4-yl]-1H-indole-6-carbonitrile], the IC50 against CDK9/Cyclin T1 complex is over 5 µM; in assay [1], over 5 µM; in the assay with HCC70 cells (Homo sapiens, HCC70, 72 h), 1 to 5 µM; on CDK2/Cyclin E1 complex, over 5 µM; in assay [2], 0.02 to 0.2 µM.

Consider `O=C1CCN(C(=O)c2ccc3c(-c4nc(N[C@H]5CCCNC5)ncc4C(F)(F)F)c[nH]c3c2)C1` [Compound 302, 1-[3-[2-[[(3S)-3-piperidyl]amino]-5-(trifluoromethyl)pyrimidin-4-yl]-1H-indole-6-carbonyl] pyrrolidin-3-one], for which the IC50 was 0.2 to 5 µM against CDK9/Cyclin T1 complex; 0.2 to 5 µM in assay [1]; 0.1 to 1 µM with HCC70 cells (Homo sapiens, HCC70, 72 h); 0.2 to 5 µM at CDK2/Cyclin E1 complex; 0.02 to 0.2 µM in assay [2].

With `CNC(=O)c1cccc2c(-c3nc(N[C@H]4CCCNC4)ncc3C(F)(F)F)cn(COC)c12` [Compound 304], the IC50 on CDK9/Cyclin T1 complex is over 5 µM; in assay [1] it was over 5 µM; with HCC70 cells, 1 to 5 µM; against CDK2/Cyclin E1 complex, over 5 µM; in assay [2], over 5 µM.

Regarding `FC(F)(F)Sc1cnc(NC2CCCNC2)nc1-c1c[nH]c2ccccc12` (centres unmarked) [Compound 305, 4-(1H-indol-3-yl)-N-(piperidin-3-yl)-5-((trifluoromethyl)thio)pyrimidin-2-amine], the IC50 on CDK9/Cyclin T1 complex was 0.2 to 5 µM; in assay [1] it was 0.2 to 5 µM; in the assay on HCC70 cells (Homo sapiens, HCC70, 72 h), 1 to 5 µM; on CDK2/Cyclin E1 complex it was 0.2 to 5 µM; in assay [2] it was under 0.02 µM.

Turning to `O=C(c1ccc2c(-c3nc(N[C@H]4CCCNC4)ncc3C(F)(F)F)c[nH]c2c1)N1C[C@H](O)C(F)(F)C1` [Compound 308, [(4S)-3,3-difluoro-4-hydroxy-pyrrolidin-1-yl]-[3-[2-[[(3S)-3-piperidyl]amino]-5-(trifluoromethyl)pyrimidin-4-yl]-1H-indol-6-yl]methanone], the IC50 on CDK9/Cyclin T1 complex is 0.2 to 5 µM; in assay [1], 0.2 to 5 µM; in the assay with HCC70 cells (Homo sapiens, HCC70, 72 h), 0.1 to 1 µM; against CDK2/Cyclin E1 complex it was 0.2 to 5 µM; in assay [2] it was under 0.02 µM.

On to `Oc1ncccc1-c1ccc2c(-c3nc(N[C@H]4CCCNC4)ncc3C(F)(F)F)c[nH]c2c1` [Compound 310, 3-[3-[2-[[(3S)-3-piperidyl]amino]-5-(trifluoromethyl)pyrimidin-4-yl]-1H-indol-6-yl]pyridin-2-ol], for which the IC50 against CDK9/Cyclin T1 complex was over 5 µM; in assay [1] it was 0.2 to 5 µM; in the assay with HCC70 cells (Homo sapiens, HCC70, 72 h) it was 0.1 to 1 µM; against CDK2/Cyclin E1 complex it was 0.2 to 5 µM; in assay [2], under 0.02 µM.

With `Cc1c(-c2ccc3c(-c4nc(N[C@H]5CCCNC5)ncc4C(F)(F)F)c[nH]c3c2)c[nH]c(=O)c1C#N` [Compound 311, 4-methyl-2-oxo-5-[3-[2-[[(3S)-3-piperidyl]amino]-5-(trifluoromethyl)pyrimidin-4-yl]-1H-indol-6-yl]-1H-pyridine-3-carbonitrile], the IC50 at CDK9/Cyclin T1 complex is 0.2 to 5 µM; in assay [1], 0.2 to 5 µM; with HCC70 cells (Homo sapiens, HCC70, 72 h) it was 1 to 5 µM; against CDK2/Cyclin E1 complex, 0.2 to 5 µM; in assay [2], under 0.02 µM.

Turning to `FC(F)(F)c1cnc(N[C@H]2CCCNC2)nc1-c1c[nH]c2cc(-c3ccc4[nH]cnc4c3)ccc12` [Compound 313], the IC50 at CDK9/Cyclin T1 complex was 0.2 to 5 µM; in assay [1], 0.2 to 5 µM; with HCC70 cells, 0.1 to 1 µM; on CDK2/Cyclin E1 complex it was 0.2 to 5 µM; in assay [2], under 0.02 µM.

In the case of `NC(=O)c1cccc(-c2ccc3c(-c4nc(N[C@H]5CCCNC5)ncc4C(F)(F)F)c[nH]c3c2)c1` [Compound 314], the IC50 at CDK9/Cyclin T1 complex was 0.2 to 5 µM; in assay [1] it was 0.2 to 5 µM; with HCC70 cells, 0.1 to 1 µM; at CDK2/Cyclin E1 complex, 0.2 to 5 µM; in assay [2] it was under 0.02 µM.

Turning to `OCc1cccc(-c2ccc3c(-c4nc(N[C@H]5CCCNC5)ncc4C(F)(F)F)c[nH]c3c2)n1` [Compound 316], the IC50 is over 5 µM on CDK9/Cyclin T1 complex; 0.2 to 5 µM in assay [1]; 0.1 to 1 µM in the assay with HCC70 cells; 0.2 to 5 µM against CDK2/Cyclin E1 complex; under 0.02 µM in assay [2].
